Laboratory results: patent US20110053873A1, “HSP90 INHIBITORS” (TAKEDA PHARMACEUTICAL COMPANY LIMITED, priority 2008, published 2011)

Tested on: cells
Experiment: not given
Settings: cited from earlier work

Structure (SMILES) | concentration range of biological effects on cells
C#CCCCn1c(Cc2cc(OC)c(OC)c(OC)c2Cl)nc2c(N)nc(F)nc21 [PU24FCl] | 2-6 μM

Tested on: HSP90
Experiment: not given
Settings: transformed cells vs normal tissues; cited from earlier work

Structure (SMILES) | higher affinity for HSP90 from transformed cells compared to that from normal tissues
C#CCCCn1c(Cc2cc(OC)c(OC)c(OC)c2Cl)nc2c(N)nc(F)nc21 [PU24FCl] | 10-50 times

Molecular target: T1, HSP90α (Homo sapiens, UniProt P07900, I104V)
T1 construct: made in house; host or cells: E. coli (BL21)
Experiment: Enzyme binding (competition fluorescence polarization) assay with TSD-FP probe
Settings: method of Example A-1; incubation time not stated; read-out: Binding Affinity IC50
Method: The reaction can be followed kinetically using fluorescence (excitation λ=485 nm; emission λ=538 nm). The binding affinity of the test compound to HSP90 is determined by the changes in the polarized fluorescence; the intensity of the polarized fluorescence is proportional to the fraction of bound probe. A novel small molecule fluorescence probe, (S,E)-5-(2-(2-amino-7-(4-fluoro-2-(6-methoxypyridin-2-yl)phenyl)-4-methyl-7,8-dihydroquinazolin-5(6H)-ylideneaminooxy)ethylcarbamoyl)-2-(6-hydroxy-3-oxo-3H-xanthene-9-yl)benzoic acid (TSD-FP probe) was specifically developed for the assay. Inhibition constants (IC50) may be calculated by non-linear curve fitting of the compound concentrations and fluorescence intensities to the standard IC50 equation.
1. Enzyme Binding (Fluorescence Polarization) Assay for HSP90 Inhibitors.
a. Preparation of HSP90c Protein
This example describes cloning, expression and purification of a protein comprising the N-terminal domain of HSP90α. It should be noted that a variety of other expression systems and hosts are also suitable for the expression of such protein, as would be readily appreciated by one of skill in the art.
The sequence of human wild-type HSP90α is well known in the art; see, Chen B. et al. Genomics 2005 86:627-637. The gene encoding HSP90α can be isolated from RNA, cDNA or cDNA libraries. In this case, the gene encoding residues 9-236 of image clone 5270926 of HSP90α (ATCC) was isolated. This portion of the gene encoding a section of human HSP90α that includes the N-terminal nucleotide binding domain of human HSP90 was cloned into pET28a vector (Novagen). The DNA sequence of the vector is shown in SEQ ID NO: 1. Expression from this vector produced a protein consisting of the recombinant N-terminal nucleotide binding domain of HSP90α with a cleavable 6×-histidine tag and a cleavage site at the N-terminus. The amino acid sequence of this recombinant protein is shown in SEQ ID NO: 2.
Recombinant human N-terminal truncated His6-HSP90α was expressed in E. coli (BL21) cells with IPTG induction. Cell paste from 24×60 mL tubes (grown in a multi-tube airlift fermentor) was lysed using an automated sample lyser. Briefly, the pellet in each tube was suspended in 21 mL of lysis buffer consisting of 50 mM Tris pH 7.9, 50 mM NaCl, 1 mM MgCl2, 0.6 g/L Lysozyme (Sigma), 100 μL/L Benzonase (Novagen). […] After incubation, 5 M NaCl was added to bring the final salt concentration to 400 mM. The tubes were sonicated for 50 seconds and then centrifuged at 3400 rpm for 50 min. The supernatants were pooled and 4 ml of ProBond Ni resin (Invitrogen) was added. After at least 30 minutes, the resin was spun down, washed with 25 mM Tris pH 7.6, 400 mM NaCl, 20 mM imidazole, poured into a column and washed with 10 column volumes of the same buffer. The protein was eluted from the column using 3 column volumes of 25 mM Tris pH 7.6, 400 mM NaCl, 400 mM imidazole. The eluate was loaded onto a Supedex 200 column (GE Healthcare) equilibrated with 25 mM Tris pH 7.6, 250 mM NaCl, 0.25 mM TCEP, 1 mM EDTA and peak fractions were pooled and concentrated to ˜6 mg/mL using 10 kDA MWCO centrifugal concentrators (Millipore). Aliquots were flash frozen in liquid nitrogen and stored at −80° C. All purification was done at 4° C.
b. Preparation of the Fluorescence Polarization Probe.
A fluorescein labeled small molecule was designed and synthesized as a probe (TSD-FP probe) for the determination of the binding affinity of the test compound to HSP90 proteins. The synthesis of the small molecule, (S,E)-2-amino-7-(4-fluoro-2-(6-methoxypyridin-2-yl)phenyl)-4-methyl-7,8-dihydroquinazolin-5(6H)-one O-2-aminoethyl oxime (Compound 24) was described in Examples 24 and 25 above. The TSD-FP probe was prepared according to the following procedure:
c. Assaying the In Vitro Enzymatic Activity of HSP90 Inhibitors.
The inhibitory effect of the compounds of the invention against HSP90α was determined by fluorescence polarization assay.

IC50 [nM] | Structure (SMILES)
8 | COc1cccc(-c2cc(F)ccc2[C@H]2Cc3nc(N)nc(C)c3C(NOCC(=O)N(C)C)=N2)n1 [Compound 83, (R,Z)-2-(2-amino-7-(4-fluoro-2-(6-methoxypyridin-2-yl)phenyl)-4-methyl-7,8-dihydropyrido[4,3-d]pyrimidin-5(6H)-ylideneaminooxy)-N,N-dimethylacetamide]
4 | COc1cccc(-c2cc(F)ccc2[C@H]2Cc3nc(N)nc(C)c3/C(=N/OCC(=O)N3CC[C@@H](F)C3)N2)n1 [Compound 85, 2-((Z)-((R)-2-amino-7-(4-fluoro-2-(6-methoxypyridin-2-yl)phenyl)-4-methyl-7,8-dihydropyrido[4,3-d]pyrimidin-5(6H)-ylidene)aminooxy)-1-((R)-3-fluoropyrrolidin-1-yl)ethanone]
8 | COc1cccc(-c2cc(F)ccc2[C@H]2Cc3nc(N)nc(C)c3/C(=N/O[C@@H](CCO)C(=O)N(C)C)N2)n1 [Compound 93, (S)-2-((Z)-((R)-2-amino-7-(4-fluoro-2-(6-methoxypyridin-2-yl)phenyl)-4-methyl-7,8-dihydropyrido[4,3-d]pyrimidin-5(6H)-ylidene)aminooxy)-4-hydroxy-N,N-dimethylbutanamide]
13 | COc1cccc(-c2cc(F)ccc2[C@H]2Cc3nc(N)nc(C)c3C(NOCC(=O)N(C)C[C@H](O)CO)=N2)n1 [Compound 96, 2-((Z)-((R)-2-amino-7-(4-fluoro-2-(6-methoxypyridin-2-yl)phenyl)-4-methyl-7,8-dihydropyrido[4,3-d]pyrimidin-5(6H)-ylidene)aminooxy)-N—((S)-2,3-dihydroxypropyl)-N-methylacetamide]
8 | COc1cccc(-c2cc(F)ccc2[C@H]2Cc3nc(N)nc(C)c3/C(=N/OCC(=O)N(C)CCO)N2)n1 [Compound 99, (R,Z)-2-(2-amino-7-(4-fluoro-2-(6-methoxypyridin-2-yl)phenyl)-4-methyl-7,8-dihydropyrido[4,3-d]pyrimidin-5(6H)-ylideneaminooxy)-N-(2-hydroxyethyl)-N-methylacetamide]

The remaining lines, values behind:

Structure (SMILES) | IC50 [nM]
COc1cccc(-c2cc(F)ccc2[C@H]2Cc3nc(N)nc(C)c3/C(=N/OC[C@H](O)CO)N2)n1 [Compound 33, (R,Z)-2-Amino-7-(4-fluoro-2-(6-methoxypyridin-2-yl)phenyl)-4-methyl-7,8-dihydropyrido[4,3-d]pyrimidin-5(6H)-one O—(R)-2,3-dihydroxypropyl oxime] | 4
COc1cccc(-c2cc(F)ccc2[C@H]2Cc3nc(N)nc(C)c3C(NOCC(CO)CO)=N2)n1 [Compound 35, (R,Z)-2-Amino-7-(4-fluoro-2-(6-methoxypyridin-2-yl)phenyl)-4-methyl-7,8-dihydropyrido[4,3-d]pyrimidin-5(6H)-one O-3-hydroxy-2-(hydroxymethyl)propyl oxime] | 13
COc1cccc(-c2cc(F)ccc2[C@H]2Cc3nc(N)nc(C)c3/C(=N/OCC[C@H](O)CO)N2)n1 [Compound 37, (R,Z)-2-amino-7-(4-fluoro-2-(6-methoxypyridin-2-yl)phenyl)-4-methyl-7,8-dihydropyrido[4,3-d]pyrimidin-5(6H)-one O—(S)-3,4-dihydroxybutyl oxime] | 6
COc1cccc(-c2cc(F)ccc2[C@H]2Cc3nc(N)nc(C)c3C(NOC3C[C@@H](O)[C@@H](O)C3)=N2)n1 (stereo partly drawn) [Compound 58, (7R,Z)-2-amino-7-(4-fluoro-2-(6-methoxypyridin-2-yl)phenyl)-4-methyl-7,8-dihydropyrido[4,3-d]pyrimidin-5(6H)-one O-(3R,4S)-3,4-dihydroxycyclopentyl oxime] | 5
COc1cccc(-c2cc(F)ccc2[C@H]2Cc3nc(N)nc(C)c3C(NOCC3C[C@@H](O)[C@@H](O)C3)=N2)n1 (stereo partly drawn) [Compound 59, (7R,Z)-2-amino-7-(4-fluoro-2-(6-methoxypyridin-2-yl)phenyl)-4-methyl-7,8-dihydropyrido[4,3-d]pyrimidin-5(6H)-one O-((3R,4S)-3,4-dihydroxycyclopentyl)methyl oxime] | 8
COc1cccc(-c2cc(F)ccc2[C@H]2Cc3nc(N)nc(C)c3/C(=N/O)N2)n1 [Compound 61, (R,Z)-2-amino-7-(4-fluoro-2-(6-methoxypyridin-2-yl)phenyl)-4-methyl-7,8-dihydropyrido[4,3-d]pyrimidin-5(6H)-one oxime] | 3
COc1cccc(-c2cc(F)ccc2[C@H]2Cc3nc(N)nc(C)c3C(NOCC3CCC(O)CC3)=N2)n1 (stereo partly drawn) [Compound 65, (R,Z)-2-amino-7-(4-fluoro-2-(6-methoxypyridin-2-yl)phenyl)-4-methyl-7,8-dihydropyrido[4,3-d]pyrimidin-5(6H)-one O-((1s,4S)-4-hydroxycyclohexyl)methyl oxime] | 10
COc1cccc(-c2cc(F)ccc2[C@H]2Cc3nc(N)nc(C)c3C(NOCCCO)=N2)n1 [Compound 78, (R,Z)-2-amino-7-(4-fluoro-2-(6-methoxypyridin-2-yl)phenyl)-4-methyl-7,8-dihydropyrido[4,3-d]pyrimidin-5(6H)-one O-3-hydroxypropyl oxime] | 4
COc1cccc(-c2cc(F)ccc2[C@H]2Cc3nc(N)nc(C)c3/C(=N/OCCCCO)N2)n1 [Compound 79, (R,Z)-2-amino-7-(4-fluoro-2-(6-methoxypyridin-2-yl)phenyl)-4-methyl-7,8-dihydropyrido[4,3-d]pyrimidin-5(6H)-one O-4-hydroxybutyl oxime] | 6
